Source: patent publication US20230381312A1, “REDIRECTING GLUCOSE METABOLISM TO LIMIT STRESS AND IMPROVE ADOPTIVE CELL THERAPY” (University of Pittsburgh - Of the Commonwealth System of …, priority 2020, published 2023)

Key:
T cells [1] = experiment: T cell survival and BCL2 expression after 10 days expansion in DCA (CellTrace Violet, flow cytometry); assay type: cell-based
Protocol: The impact of a PDHK1 inhibitor (DCA) on T cell survival was assessed by measuring expression of anti-apoptotic BLC2. […] The T cells were activated and expanded as described in Example 1, except the labeled PBMCs were cultured in media containing IL-2 for 48 hours, and the T cells were cultured in DCA or control conditions for 10 days. Experimental expansion conditions included culturing in 5 mM DCA or 10 mM DCA. Control conditions included 5 mM of glycolysis inhibitor 2-deoxyglucose (2DG), low glucose media, or PBS. The impact of DCA on T cell survival was assayed by evaluating CellTrace® Violet dilution with flow cytometry. Fresh X-VIVO®-15-based culture medium containing IL-2 and DCA or 2DG was added to the T cell cultures every two to three days for a total of ten days to permit outgrowth and expansion of the T cells.
A pairwise T test was performed on all day ten cultures (each concentration of DCA was compared to 0 mM DCA: *p<0.05, **p<0.01).

T cells [2] = experiment: Metabolic flux rate experiments (OCR, ECAR) in T cells expanded in DCA; assay type: cell-based, mouse
From the text: The methods provided herein can include measurement of plural extracellular solutes and adjacent living cells disposed, for example, in a well of a multiwell microplate.
This apparatus can include an array of submersible sensors that enable rapid coordinated sensor stabilization within multiple cell-containing wells. It also includes compound storage and delivery apparatus, a pneumatic multiplexer, a structure for adding fluids to subsets or all of the multiple wells simultaneously, and a sensor structure permitting non-destructive measurement of the effect of addition of exogenous fluid to the respective wells, in combination with the ability to make and repeat measurements rapidly. Furthermore, the apparatus is designed to exploit a cartridge structure which permits repeated use of the apparatus for disparate cellular assays without requiring intermediate cleaning, and while eliminating the possibility of cross contamination between tests.
In use, the first step in a measurement sequence with the Seahorse XF instrument is the exchange of cell media to a type containing nearly no bicarbonate or other pH buffer in order to maximize the pH change caused by cellular proton flux.
Next, measurement probes fitted with an optical oxygen and pH sensor were placed in each well, and were raised and lowered to mix the cell media for approximately five minutes. Third, each probe was lowered into the cell media to stop at a precise point above the cells such that approximately 25 μL of media was sequestered in a way that impeded the diffusion of oxygen molecules and protons to the larger volume of media in the well. Fourth, a series of optical measurements of the two sensors on the probe bottom (in contact with the small volume of media above the cells) were made at intervals of 8 seconds and for a period of five minutes. Typically, the dissolved oxygen level decreased by approximately 10% and the pH decreased by approximately 0.1 units. A simple linear fit to the rate of change of oxygen and pH were used to determine the OCR and ECAR for each well. […]

T cells [3] = experiment: Mitochondrial mass by MitoTracker FM in T cells cultured in DCA; assay type: cell-based, mouse; conditions: after culture in 5 mM DCA, FIG. 4E
human T cells = experiment: Metabolic flux rate experiments (OCR, SRC) in human T cells expanded in DCA; assay type: cell-based
Protocol: Metabolic flux rate experiments were performed to determine whether human T cells expanded in DCA show improved mitochondrial respiratory capacity. This example identically replicates the methods described in Example 3, except human T cells were used (derived from human healthy donor blood).
Metabolic flux rate measurements were performed using the CellDoctor™ device and methods described above. The CellDoctor™ device was configured to measure oxygen consumption rate (OCR) and extracellular acidification rate (ECAR), corresponding to proton flux, of cells that are adherent to the bottom of 24 well microplates. As described above, flux rate experiments were performed in a human T cell line expanded in either 5 mM DCA or a control group without DCA. FIG. 6A illustrates the use of an activation step (CD3/CD28) for 48 hours and a culturing step (Ctrl/DCA) for 10 days as described in Example 2.

[4] = test system: tumor-infiltrating T cells; experiment: Metabolic flux rate experiment (OCR) in tumor-infiltrating T cells of melanoma patients expanded in vitro with DCA; assay type: cell-based, human; conditions: patient TIL expanded 10 days, FIG. 7B
From the text: Patient samples and PBMC samples were obtained from melanoma patients who were enrolled on institutional review board approved protocols. Cells from 5 different patients were used. PBMC were cryopreserved in 90% FBS plus 10% DMSO (Sigma, St. Louis. MO).
(§1) This method included obtaining a sample of tumor from a patient suffering from metastatic melanoma, making a single cell suspension, and expanding the T cells in a cell culture medium with IL-2 present in a concentration of 6000 IU/mL+/−DCA in addition to anti-CD3/anti-CD28 antibodies for a period of 10 days.
Metabolic flux rate experiments measuring OCR were also performed as described above.

[5] = test system: tumor-infiltrating T cells; experiment: Signaling analysis of patient tumor-infiltrating T cells expanded with DCA (PD-1, Tim-3, IFN-gamma, TNF-alpha); assay type: cell-based, human; conditions: patient TIL expanded with DCA, FIG. 7C
Protocol: as §1
Signaling analysis were performed as described above.

[6] = test system: human anti-CD19 CAR-T cells; experiment: Metabolic flux rate experiments in human anti-CD19 CAR-T cells generated with DCA; assay type: cell-based; conditions: 5 mM DCA relative to hCD19 CAR, FIG. 8B
Protocol: On the first day (“day 0”), 1) fresh or frozen peripheral blood mononuclear (PBMCs) are seeded at 10×10^6 cells/10 mL in a T25 culture flask in T Cell Growth Media (TCGM), and 2) T cell stimulation cocktail is added to a final concentration of 50 ng/mL anti-CD3, 50 ng/mL anti-CD28, and 250 IU/mL IL-2. […] On day 3, 5) lentiviral supernatant is removed, and 6) cells are fed with new media to a concentration of 3×10^5 cells/mL and 5 mM DCA. On day 4, 7) a transfer of 5×10^6 cells/condition is made to G-Rex® 6 multi-well plates, filling TCGM+5 mM DCA to a volume of 100 mL/well. […] On day 10, 9) cells are frozen down to a concentration of 100×10^6 cells/mL. Standard T Cell Growth Media includes: 930 mL X-VIVO®-15 cell medium, 50 ml Human AB Serum, 10 ml 100× GlutaMAX® supplement, and 10 mL 1M HEPES.
FMC63 (human CD19 targeted CAR) human T cells were generated in the presence or absence of DCA. These cells were used to treat mice bearing A549 lung cancer tumors that were engineered to express hCD19.
Controls were prepared and human anti-CD19 CAR-T cells were cultured as described above. Metabolic flux rate experiments measuring OCR were also performed as described above.

EGFR BBz CAR-T cells = experiment: Metabolic flux rate experiments (OCR, ECAR) in EGFR BBz CAR-T cells expanded with DCA; assay type: cell-based; conditions: for OCR analysis (metabolic phenotype): FIG. 9A; for ECAR analysis (metabolic phenotype): FIG. 9B
Protocol: Immunodeficient mice with a solid tumor (unmodified A549) were treated with adoptively transferred EGFR BBz CAR T cells that were expanded either in the presence or absence of DCA.
FIGS. 9A-9C depict metabolic flux rate experiments and flow cytometry measurements, showing that DCA can metabolically enhance a solid-tumor targeted CAR.
The UTD control was prepared as described above. Metabolic flux rate experiments and T cell preparation were performed as described above.

T cells [7] = experiment: Cytokine synthesis on restimulation after switch to low or high nutrient conditions; assay type: cell-based
From the text: FIG. 15A is a schematic of the experimental protocol for FIGS. 15B and 15C.

[8] = 5 mM DCA relative to UTD control
[9] = 10 mM DCA relative to UTD control

## O=C(O)C(Cl)Cl [DCA, dichloroacetic acid]
T cells [1]; T cells cultured in 5 mM or 10 mM DCA for 10 days vs 0 mM DCA
  T cell survival: significantly increased
T cells [1]; T cells cultured in DCA for 10 days, FIG. 3
  expression of the anti-apoptotic factor BCL2: enhanced expression
T cells [2]; T cells expanded in 5 mM DCA vs control cells, FIG. 4A
  OCR after sequential injection of FCCP and 2DG: OCR increased
T cells [2]; T cells expanded in 5 mM DCA, FIG. 4B
  increase in OCR over baseline: at least 30%
T cells [2]; T cells expanded in 5 mM DCA, FIG. 4C
  increase in ECAR over baseline: at least 10 mpH/min
T cells [3]
  mitochondrial mass (MitoTracker FM): increased
Human T cells; human T cells expanded in 5 mM DCA versus control, FIG. 6D
  Spare Respiratory Capacity (SRC, OCRmax-OCRbasal): at least 60
Human T cells; human T cells expanded in 5 mM DCA, FIG. 6C
  increase in OCR over baseline: at least 20 pmol/min
Human T cells; human T cells, CD3/CD28 48 hours then 5 mM DCA 10 days vs control, FIG. 6B
  OCR over time: dramatic increase
[4]; 5 mM DCA relative to TIL control
  OCR at serial time points (metabolic phenotype): superior metabolic phenotype
[4]; 10 mM DCA relative to TIL control
  OCR at serial time points (metabolic phenotype): superior metabolic phenotype
[5]
  cytokine production (IFN-gamma and TNF-alpha): increase in cytokine production
  ratio of PD-1 negative T cells to PD-1 positive T cells: increasing ratio
  ratio of Tim-3 negative T cells to Tim-3 positive T cells: increasing ratio
[6]
  OCR at serial time points (metabolic phenotype): superior metabolic and therapeutic phenotype
EGFR BBz CAR-T cells; [8]
  OCR analysis (metabolic phenotype): superior metabolic phenotype
  ECAR analysis (metabolic phenotype): superior metabolic phenotype
EGFR BBz CAR-T cells; [9]
  OCR analysis (metabolic phenotype): superior metabolic phenotype
  ECAR analysis (metabolic phenotype): superior metabolic phenotype
T cells [7]; cells cultured with DCA for 7 days, then low or high nutrient conditions for 14 hours, FIG. 15B-15C
  cytokine synthesis when restimulated after expansion: more proficient at synthesizing cytokines
T cells [7]; low nutrient: 1 mM glucose+0 mM pyruvate, 14 hours
  resistance to stress in low nutrient conditions: more resistant to stress
